Experimental findings from ChEMBL document CHEMBL5226326, “Discovery of 1-Benzoyl 4-Phenoxypiperidines as Small-Molecule Inhibitors of the β-Catenin/B-Cell Lymphoma 9 Protein-Protein Interaction” (J Med Chem, 2021) are described below.

For one test, the target named is T1, beta-catenin-B-cell lymphoma 9 protein complex (Homo sapiens, UniProt P35222).
T1 sequence (P35222 whole entry): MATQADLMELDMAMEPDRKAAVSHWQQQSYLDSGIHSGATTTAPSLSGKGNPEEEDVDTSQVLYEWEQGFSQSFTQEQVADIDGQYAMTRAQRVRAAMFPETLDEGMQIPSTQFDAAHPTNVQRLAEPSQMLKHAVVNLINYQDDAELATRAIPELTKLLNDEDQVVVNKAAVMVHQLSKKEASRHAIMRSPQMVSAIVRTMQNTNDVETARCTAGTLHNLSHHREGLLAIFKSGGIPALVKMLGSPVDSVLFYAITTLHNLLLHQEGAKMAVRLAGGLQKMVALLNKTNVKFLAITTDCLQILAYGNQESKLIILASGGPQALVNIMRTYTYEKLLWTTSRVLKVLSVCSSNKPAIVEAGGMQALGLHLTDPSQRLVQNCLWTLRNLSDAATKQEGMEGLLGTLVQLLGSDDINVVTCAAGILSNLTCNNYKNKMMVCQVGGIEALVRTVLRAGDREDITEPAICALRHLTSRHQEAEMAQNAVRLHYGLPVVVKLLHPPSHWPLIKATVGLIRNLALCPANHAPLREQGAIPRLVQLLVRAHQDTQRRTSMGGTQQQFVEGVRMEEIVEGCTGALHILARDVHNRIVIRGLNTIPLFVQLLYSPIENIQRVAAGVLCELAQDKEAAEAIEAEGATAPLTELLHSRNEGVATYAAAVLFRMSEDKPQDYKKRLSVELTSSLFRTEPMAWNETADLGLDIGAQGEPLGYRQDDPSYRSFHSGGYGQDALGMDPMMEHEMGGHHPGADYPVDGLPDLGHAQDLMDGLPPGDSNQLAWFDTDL
T1 sequence (O00512 whole entry): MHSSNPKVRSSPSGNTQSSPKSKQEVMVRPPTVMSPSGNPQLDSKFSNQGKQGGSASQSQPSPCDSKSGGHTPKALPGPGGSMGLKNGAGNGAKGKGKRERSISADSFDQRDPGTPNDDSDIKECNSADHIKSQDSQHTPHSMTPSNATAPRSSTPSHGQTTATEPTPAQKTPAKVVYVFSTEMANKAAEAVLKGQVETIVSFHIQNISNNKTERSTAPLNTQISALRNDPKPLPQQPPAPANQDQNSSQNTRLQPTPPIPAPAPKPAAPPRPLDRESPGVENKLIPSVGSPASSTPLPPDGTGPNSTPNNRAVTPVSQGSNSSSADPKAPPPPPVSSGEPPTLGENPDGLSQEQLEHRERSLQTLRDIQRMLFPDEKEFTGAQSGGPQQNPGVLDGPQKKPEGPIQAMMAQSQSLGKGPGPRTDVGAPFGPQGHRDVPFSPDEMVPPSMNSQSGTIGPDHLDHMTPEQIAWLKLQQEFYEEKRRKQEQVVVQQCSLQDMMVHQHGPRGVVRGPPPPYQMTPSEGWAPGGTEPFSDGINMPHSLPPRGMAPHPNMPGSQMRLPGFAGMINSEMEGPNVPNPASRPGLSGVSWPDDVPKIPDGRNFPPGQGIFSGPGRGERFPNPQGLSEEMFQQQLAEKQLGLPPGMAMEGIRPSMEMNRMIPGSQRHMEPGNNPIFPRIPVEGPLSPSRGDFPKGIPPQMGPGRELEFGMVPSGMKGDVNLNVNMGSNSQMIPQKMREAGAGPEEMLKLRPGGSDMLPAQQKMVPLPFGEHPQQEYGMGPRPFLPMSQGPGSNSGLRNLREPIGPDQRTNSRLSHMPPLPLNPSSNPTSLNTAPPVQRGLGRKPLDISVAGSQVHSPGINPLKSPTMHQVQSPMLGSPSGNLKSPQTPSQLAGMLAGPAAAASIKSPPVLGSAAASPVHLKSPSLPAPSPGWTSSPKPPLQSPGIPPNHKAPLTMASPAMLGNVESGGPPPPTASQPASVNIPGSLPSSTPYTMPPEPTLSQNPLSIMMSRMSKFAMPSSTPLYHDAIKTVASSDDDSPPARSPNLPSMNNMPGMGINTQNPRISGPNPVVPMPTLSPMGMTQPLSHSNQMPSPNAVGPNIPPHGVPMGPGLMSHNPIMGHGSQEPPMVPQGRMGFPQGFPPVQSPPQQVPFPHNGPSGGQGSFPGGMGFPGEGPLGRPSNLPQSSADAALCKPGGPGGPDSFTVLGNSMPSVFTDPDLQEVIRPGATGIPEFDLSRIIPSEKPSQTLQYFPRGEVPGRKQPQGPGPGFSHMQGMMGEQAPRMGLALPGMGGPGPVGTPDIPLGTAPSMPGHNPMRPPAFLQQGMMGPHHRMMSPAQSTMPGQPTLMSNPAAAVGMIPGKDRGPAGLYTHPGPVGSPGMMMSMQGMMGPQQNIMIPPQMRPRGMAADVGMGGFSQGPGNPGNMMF
Nature of the test: Inhibition of full length beta-catenin (1 to 781 residues) (unknown origin) expressed in Escherichia coli BL21 (DE3)/N-terminal biotinylated human BCL9 HD2 (350 to 375 residues) protein-protein interaction assessed as inhibition constant incubated for 1 hr by Alphascreen assay. For orientation: Alpha assays give light when donor and acceptor beads are brought close together.
Broadly, the Ki is the equilibrium dissociation constant of an inhibitor or competing ligand from its target. On to `O=C(c1ccc(O[C@@H]2CCNC2)c(C2CCCCC2)c1)N1CCC(Oc2cc(F)cc(N3CCNCC3)c2)CC1`, for which the Ki turned out to be 52 µM.

As for `O=C(c1ccc(O[C@H]2CCNC2)c(C2CCCCC2)c1)N1CCC(Oc2cc(F)cc(N3CCNCC3)c2)CC1`, the Ki came out at 46 µM.

For `O=C(c1ccc(O[C@H]2CCNC2)c(-c2ccc(C(F)(F)F)cc2)c1)N1CCC(Oc2cc(F)cc(N3CCNCC3)c2)CC1`, the Ki stood at 16 µM.

As for `O=C(c1ccc(O[C@H]2CCNC2)c(-c2ccc3ccsc3c2)c1)N1CCC(Oc2cc(F)cc(N3CCNCC3)c2)CC1`, the inhibition constant Ki was determined as 4 µM.

As for `NCc1cn(Cc2cc(F)cc(OC3CCN(C(=O)c4ccc(O[C@H]5CCNC5)c(C5CCCCC5)c4)CC3)c2)nn1`, the Ki is over 84 µM.

Consider `CC(C)(C)C(=O)N1CCC(c2cc(C(=O)N3CCC(Oc4cc(F)cc(N5CCNCC5)c4)CC3)ccc2O[C@H]2CCNC2)CC1`, for which the inhibitory constant (Ki) was over 84 µM.

Turning to `O=C(c1ccc(O[C@H]2CCNC2)c(-c2ccc3cn[nH]c3c2)c1)N1CCC(Oc2cc(F)cc(N3CCNCC3)c2)CC1`, the Ki came to 10 µM.

In the case of `CC(C)(C)c1ccc(-c2cc(C(=O)N3CCC(Oc4cc(F)cc(N5CCNCC5)c4)CC3)ccc2O[C@H]2CCNC2)cc1`, the Ki was found to be 10 µM.

Regarding `O=C(c1ccc(O[C@H]2CCNC2)c(-c2ccccc2)c1)N1CCC(Oc2cc(F)cc(N3CCNCC3)c2)CC1`, the Ki was 42 µM.

On to `CC(C)(CN)C(=O)NCc1cc(F)cc(OC2CCN(C(=O)c3ccc(O[C@H]4CCNC4)c(C4CCCCC4)c3)CC2)c1`, for which the inhibition constant (Ki) was over 84 µM.

For `O=C(c1ccc(O[C@H]2CCNC2)c(C2CCOCC2)c1)N1CCC(Oc2cc(F)cc(N3CCNCC3)c2)CC1`, the Ki was over 84 µM.

Turning to `O=C(c1ccc(O[C@H]2CCNC2)c(-c2ccc3ccccc3c2)c1)N1CCC(Oc2cc(F)cc(N3CCNCC3)c2)CC1`, the Ki worked out at 4.1 µM.

For `CC(C)(C)C1CCC(c2cc(C(=O)N3CCC(Oc4cc(Cl)cc(N5CCNCC5)c4)CC3)ccc2O[C@H]2CCNC2)CC1` (mixture of isomers), the Ki turned out to be 3.6 µM.

As to `CC(C)(C)C1CCC(c2cc(C(=O)N3CCC(Oc4cc(C#N)cc(N5CCNCC5)c4)CC3)ccc2O[C@H]2CCNC2)CC1` (mixture of isomers), the Ki was 4.4 µM.

As to `O=C(c1ccc(O[C@H]2CCNC2)c(C2CCC(C(F)(F)F)CC2)c1)N1CCC(Oc2cc(F)cc(N3CCNCC3)c2)CC1` (mixture of isomers), the Ki turned out to be 13 µM.

Turning to `CC(C)(C)C1CCC(c2cc(C(=O)N3CCC(Oc4cc(N5CCNCC5)ccc4F)CC3)ccc2O[C@H]2CCNC2)CC1` (mixture of isomers), the Ki came out at 5 µM.

On to `CC(C)(C)C1CCC(c2cc(C(=O)N3CCC(Oc4cc(F)cc(N5CCNCC5)c4)CC3)ccc2O[C@H]2CCNC2)CC1` (mixture of isomers), for which the Ki amounted to 3.2 µM.

The next test has as its target T1, beta-catenin-B-cell lymphoma 9 protein complex. Nature of the test: Inhibition of full length beta-catenin (1 to 781 residues) (unknown origin) expressed in Escherichia coli BL21 (DE3)/N-terminal biotinylated human BCL9 HD2 (350 to 375 residues) protein-protein interaction incubated for 1 hr by Alphascreen assay.
Usually IC50 stands for the concentration at which inhibition is half-maximal. The compound `O=C(c1ccc(O[C@@H]2CCNC2)c(C2CCCCC2)c1)N1CCC(Oc2cc(F)cc(N3CCNCC3)c2)CC1` returned an IC50 of 64 µM.

`O=C(c1ccc(O[C@H]2CCNC2)c(C2CCCCC2)c1)N1CCC(Oc2cc(F)cc(N3CCNCC3)c2)CC1` yielded an IC50 of 57 µM. This IC50 and that of the compound before are within 1.5-fold of each other.

Turning to `O=C(c1ccc(O[C@H]2CCNC2)c(-c2ccc(C(F)(F)F)cc2)c1)N1CCC(Oc2cc(F)cc(N3CCNCC3)c2)CC1`, half-maximal inhibition (IC50) was put at 18 µM.

Consider `O=C(c1ccc(O[C@H]2CCNC2)c(-c2ccc3ccsc3c2)c1)N1CCC(Oc2cc(F)cc(N3CCNCC3)c2)CC1`, for which the half-maximal inhibitory concentration (IC50) was found to be 4.5 µM.

Take `NCc1cn(Cc2cc(F)cc(OC3CCN(C(=O)c4ccc(O[C@H]5CCNC5)c(C5CCCCC5)c4)CC3)c2)nn1`: the concentration for half-maximal inhibition (IC50) was over 100 µM.

`CC(C)(C)C(=O)N1CCC(c2cc(C(=O)N3CCC(Oc4cc(F)cc(N5CCNCC5)c4)CC3)ccc2O[C@H]2CCNC2)CC1` displayed an IC50 of over 100 µM.

Regarding `O=C(c1ccc(O[C@H]2CCNC2)c(-c2ccc3cn[nH]c3c2)c1)N1CCC(Oc2cc(F)cc(N3CCNCC3)c2)CC1`, the IC50 was 11 µM. That is a double-digit micromolar value.

In turn, `CC(C)(C)c1ccc(-c2cc(C(=O)N3CCC(Oc4cc(F)cc(N5CCNCC5)c4)CC3)ccc2O[C@H]2CCNC2)cc1` yielded a 50% inhibitory concentration (IC50) of 11 µM.

With `O=C(c1ccc(O[C@H]2CCNC2)c(-c2ccccc2)c1)N1CCC(Oc2cc(F)cc(N3CCNCC3)c2)CC1`, the IC50 was found to be 47 µM.

Compound `CC(C)(CN)C(=O)NCc1cc(F)cc(OC2CCN(C(=O)c3ccc(O[C@H]4CCNC4)c(C4CCCCC4)c3)CC2)c1` gave a concentration for half-maximal inhibition (IC50) of over 100 µM.

Turning to `O=C(c1ccc(O[C@H]2CCNC2)c(C2CCOCC2)c1)N1CCC(Oc2cc(F)cc(N3CCNCC3)c2)CC1`, the IC50 was over 100 µM.

Regarding `O=C(c1ccc(O[C@H]2CCNC2)c(-c2ccc3ccccc3c2)c1)N1CCC(Oc2cc(F)cc(N3CCNCC3)c2)CC1`, the IC50 is 4.6 µM.

`CC(C)(C)C1CCC(c2cc(C(=O)N3CCC(Oc4cc(Cl)cc(N5CCNCC5)c4)CC3)ccc2O[C@H]2CCNC2)CC1` (mixture of isomers) showed an IC50 of 4.3 µM.

`CC(C)(C)C1CCC(c2cc(C(=O)N3CCC(Oc4cc(C#N)cc(N5CCNCC5)c4)CC3)ccc2O[C@H]2CCNC2)CC1` (mixture of isomers) came in with an IC50 of 5.2 µM.

`O=C(c1ccc(O[C@H]2CCNC2)c(C2CCC(C(F)(F)F)CC2)c1)N1CCC(Oc2cc(F)cc(N3CCNCC3)c2)CC1` (mixture of isomers) showed an IC50 of 20 µM.

As to `CC(C)(C)C1CCC(c2cc(C(=O)N3CCC(Oc4cc(N5CCNCC5)ccc4F)CC3)ccc2O[C@H]2CCNC2)CC1` (mixture of isomers), the IC50 came out at 6.2 µM.

Compound `CC(C)(C)C1CCC(c2cc(C(=O)N3CCC(Oc4cc(F)cc(N5CCNCC5)c4)CC3)ccc2O[C@H]2CCNC2)CC1` (mixture of isomers) yielded an IC50 of 3.6 µM.
